# Assay results as given in patent publication US20110196000A1, “Use of succinate dehydrogenase (SDH) inhibitors in the treatment of plant species from the family of the true grasses” (Bayer CropScience AG, priority 2010, published 2011).
# How the values were obtained:
# Assay type in all cases: in vivo
# wheat variety Ritmo = assay: Plot trial in Germany: green leaf area by visual scoring; details: for green leaf area of the flag leaf / green leaf area of the second-from-top leaf (F-1) / green leaf area of the third-from-top leaf (F-2): sprays at BBCH 39 and 59
# Experimental: In Germany a plot trial was set up with the wheat variety Ritmo in order to investigate the effect of bixafen on the physiology, morphology and abiotic stress tolerance of wheat plants under realistic agricultural conditions. The products under test were applied to the plants, in the form of sequential spray sequences (BBCH 39 and 59). The spray volume was 400 l of water per hectare. In each trial component, 5 repetitions were carried out. [table] The duration of green coloration of the leaf area was captured by regular visual scoring of the fraction of green leaf area.
# [1] = test system: infection-free wheat plants of the cultivar Passat; assay: Glasshouse trial: yield components; details: for Ears/pot / Harvest Index / Kernels/ear / Straw / TKM (thousand-kernel mass) / Yield: glasshouse, sprays at BBCH 39 and 59
# Wheat plants = assay: Effect of single and double bixafen treatment on leaf area; details: for Area [rel.] of the flag leaf / Area [rel.] of the leaf F-1: untreated = 100
# Experimental: Trial procedure: Wheat plants were treated at different development stages with bixafen once or twice (125 g/ha each time), and a measurement was made of the respective size of the flag leaf and of the leaf F-1 at the time BBCH 75. For the destructive measurement of the leaf area, the leaves were removed from the plant. The non-destructive measurement was carried out on the intact leaf of the plant.
# [2] = 7 days after second fungicide application
# [3] = 14 days after second fungicide application
# [4] = 21 days after second fungicide application
# [5] = 28 days after second fungicide application
# [6] = 35 days after second fungicide application
# [7] = 42 days after second fungicide application
# [8] = 49 days after second fungicide application
# [9] = treated at BBCH 33 (125 g/ha), measured at BBCH 75, destructive
# [10] = treated at BBCH 33 (125 g/ha), measured at BBCH 75, non-destructive
# [11] = treated at BBCH 33 + 39 (125 g/ha each time), measured at BBCH 75, destructive
# [12] = treated at BBCH 33 + 39 (125 g/ha each time), measured at BBCH 75, non-destructive
# [13] = treated at BBCH 33 + 59 (125 g/ha each time), measured at BBCH 75, destructive
# [14] = treated at BBCH 33 + 59 (125 g/ha each time), measured at BBCH 75, non-destructive
# [15] = treated at BBCH 39 (125 g/ha), measured at BBCH 75, destructive
# [16] = treated at BBCH 39 (125 g/ha), measured at BBCH 75, non-destructive
# [17] = treated at BBCH 39 + 59 (125 g/ha each time), measured at BBCH 75, destructive
# [18] = treated at BBCH 39 + 59 (125 g/ha each time), measured at BBCH 75, non-destructive
# [19] = treated at BBCH 59 (125 g/ha), measured at BBCH 75, destructive
# [20] = treated at BBCH 59 (125 g/ha), measured at BBCH 75, non-destructive
smiles,measurement,setting,value
OC(Cc1ccccc1Cl)(Cn1nc[nH]c1=S)C1(Cl)CC1 (stereo not shown) [Prothioconazole],green leaf area of the flag leaf,wheat variety Ritmo; [2],98.8 % leaf area
same,green leaf area of the second-from-top leaf (F-1),wheat variety Ritmo; [2],97.8 % leaf area
same,green leaf area of the third-from-top leaf (F-2),wheat variety Ritmo; [2],96.1 % leaf area
same,green leaf area of the flag leaf,wheat variety Ritmo; [3],98.2 % leaf area
same,green leaf area of the second-from-top leaf (F-1),wheat variety Ritmo; [3],97.8 % leaf area
same,green leaf area of the third-from-top leaf (F-2),wheat variety Ritmo; [3],95.9 % leaf area
same,green leaf area of the flag leaf,wheat variety Ritmo; [4],98.1 % leaf area
same,green leaf area of the second-from-top leaf (F-1),wheat variety Ritmo; [4],96.8 % leaf area
same,green leaf area of the third-from-top leaf (F-2),wheat variety Ritmo; [4],94.9 % leaf area
same,green leaf area of the flag leaf,wheat variety Ritmo; [5],94.0 % leaf area
same,green leaf area of the second-from-top leaf (F-1),wheat variety Ritmo; [5],91.2 % leaf area
same,green leaf area of the third-from-top leaf (F-2),wheat variety Ritmo; [5],83.7 % leaf area
same,green leaf area of the flag leaf,wheat variety Ritmo; [6],58.8 % leaf area
same,green leaf area of the second-from-top leaf (F-1),wheat variety Ritmo; [6],44.3 % leaf area
same,green leaf area of the third-from-top leaf (F-2),wheat variety Ritmo; [6],25.3 % leaf area
same,green leaf area of the flag leaf,wheat variety Ritmo; [7],13.8 % leaf area
same,green leaf area of the second-from-top leaf (F-1),wheat variety Ritmo; [7],4.2 % leaf area
same,green leaf area of the third-from-top leaf (F-2),wheat variety Ritmo; [7],0 % leaf area
same,green leaf area of the second-from-top leaf (F-1),wheat variety Ritmo; [8],0 % leaf area
same,Ears/pot,[1],43.1
same,Harvest Index,[1],27.3%
same,Kernels/ear,[1],22.2
same,Straw,[1],85.4 g/pot
same,TKM (thousand-kernel mass),[1],33.5 g
same,Yield,[1],32.1 g/pot
"Cn1cc(C(=O)Nc2ccc(F)cc2-c2ccc(Cl)c(Cl)c2)c(C(F)F)n1 [Bixafen, N-(3′,4′-dichloro-5-fluoro-1,1′-biphenyl-2-yl)-3-(difluoromethyl)-1-methyl-1H-pyrazole-4-carboxamide]",green leaf area of the flag leaf,wheat variety Ritmo; [2],98.9 % leaf area
same,green leaf area of the second-from-top leaf (F-1),wheat variety Ritmo; [2],98.4 % leaf area
same,green leaf area of the third-from-top leaf (F-2),wheat variety Ritmo; [2],96.4 % leaf area
same,green leaf area of the flag leaf,wheat variety Ritmo; [3],98.7 % leaf area
same,green leaf area of the second-from-top leaf (F-1),wheat variety Ritmo; [3],98.3 % leaf area
same,green leaf area of the third-from-top leaf (F-2),wheat variety Ritmo; [3],96.3 % leaf area
same,green leaf area of the flag leaf,wheat variety Ritmo; [4],98.8 % leaf area
same,green leaf area of the second-from-top leaf (F-1),wheat variety Ritmo; [4],98.5 % leaf area
same,green leaf area of the third-from-top leaf (F-2),wheat variety Ritmo; [4],94.5 % leaf area
same,green leaf area of the flag leaf,wheat variety Ritmo; [5],96.7 % leaf area
same,green leaf area of the second-from-top leaf (F-1),wheat variety Ritmo; [5],94.8 % leaf area
same,green leaf area of the third-from-top leaf (F-2),wheat variety Ritmo; [5],91.8 % leaf area
same,green leaf area of the flag leaf,wheat variety Ritmo; [6],73.0 % leaf area
same,green leaf area of the second-from-top leaf (F-1),wheat variety Ritmo; [6],60.0 % leaf area
same,green leaf area of the third-from-top leaf (F-2),wheat variety Ritmo; [6],37.5 % leaf area
same,green leaf area of the flag leaf,wheat variety Ritmo; [7],26.7 % leaf area
same,green leaf area of the second-from-top leaf (F-1),wheat variety Ritmo; [7],9.2 % leaf area
same,green leaf area of the third-from-top leaf (F-2),wheat variety Ritmo; [7],3.4 % leaf area
same,green leaf area of the second-from-top leaf (F-1),wheat variety Ritmo; [8],0 % leaf area
same,effect on the duration of the green leaf area of the wheat plant,"wheat variety Ritmo; plot trial, statement in words",pronounced effect
same,yield components compared with the other comparison fungicides,"[1]; glasshouse trial, statement in words","a higher yield, a higher number of kernel/ear, a higher thousand-kernel mass and a lower straw fraction than the other comparison fungicides"
same,Ears/pot,[1],40.0
same,Harvest Index,[1],29.8%
same,Kernels/ear,[1],25.1
same,Straw,[1],88.5 g/pot
same,TKM (thousand-kernel mass),[1],37.5 g
same,Yield,[1],37.5 g/pot
same,Area of the flag leaf,Wheat plants; [9],32.13 cm^2
same,Area of the leaf F-1,Wheat plants; [9],32.69 cm^2
same,Length of the flag leaf,Wheat plants; [9],28.25 cm
same,Length of the leaf F-1,Wheat plants; [9],30.58 cm
same,Width of the flag leaf,Wheat plants; [9],1.47 cm
same,Width of the leaf F-1,Wheat plants; [9],1.35 cm
same,Area [rel.] of the flag leaf,Wheat plants; [9],115 rel.
same,Area [rel.] of the leaf F-1,Wheat plants; [9],119 rel.
same,Area of the flag leaf,Wheat plants; [10],35.23 cm^2
same,Length of the flag leaf,Wheat plants; [10],25.11 cm
same,Width of the flag leaf,Wheat plants; [10],1.66 cm
same,Area [rel.] of the flag leaf,Wheat plants; [10],109 rel.
same,Area of the flag leaf,Wheat plants; [11],29.38 cm^2
same,Area of the leaf F-1,Wheat plants; [11],28.42 cm^2
same,Length of the flag leaf,Wheat plants; [11],24.49 cm
same,Length of the leaf F-1,Wheat plants; [11],27.68 cm
same,Width of the flag leaf,Wheat plants; [11],1.40 cm
same,Width of the leaf F-1,Wheat plants; [11],1.27 cm
same,Area [rel.] of the flag leaf,Wheat plants; [11],105 rel.
same,Area [rel.] of the leaf F-1,Wheat plants; [11],103 rel.
same,Area of the flag leaf,Wheat plants; [12],35.37 cm^2
same,Length of the flag leaf,Wheat plants; [12],24.49 cm
same,Width of the flag leaf,Wheat plants; [12],1.76 cm
same,Area [rel.] of the flag leaf,Wheat plants; [12],109 rel.
same,Area of the flag leaf,Wheat plants; [13],31.28 cm^2
same,Area of the leaf F-1,Wheat plants; [13],30.07 cm^2
same,Length of the flag leaf,Wheat plants; [13],27.10 cm
same,Length of the leaf F-1,Wheat plants; [13],29.77 cm
same,Width of the flag leaf,Wheat plants; [13],1.51 cm
same,Width of the leaf F-1,Wheat plants; [13],1.30 cm
same,Area [rel.] of the flag leaf,Wheat plants; [13],112 rel.
same,Area [rel.] of the leaf F-1,Wheat plants; [13],109 rel.
same,Area of the flag leaf,Wheat plants; [14],37.41 cm^2
same,Length of the flag leaf,Wheat plants; [14],25.83 cm
same,Width of the flag leaf,Wheat plants; [14],1.73 cm
same,Area [rel.] of the flag leaf,Wheat plants; [14],115 rel.
same,Area of the flag leaf,Wheat plants; [15],29.04 cm^2
same,Area of the leaf F-1,Wheat plants; [15],28.37 cm^2
same,Length of the flag leaf,Wheat plants; [15],25.81 cm
same,Length of the leaf F-1,Wheat plants; [15],28.27 cm
same,Width of the flag leaf,Wheat plants; [15],1.40 cm
same,Width of the leaf F-1,Wheat plants; [15],1.19 cm
same,Area [rel.] of the flag leaf,Wheat plants; [15],104 rel.
same,Area [rel.] of the leaf F-1,Wheat plants; [15],103 rel.
same,Area of the flag leaf,Wheat plants; [16],34.86 cm^2
same,Length of the flag leaf,Wheat plants; [16],24.21 cm
same,Width of the flag leaf,Wheat plants; [16],1.72 cm
same,Area [rel.] of the flag leaf,Wheat plants; [16],108 rel.
same,Area of the flag leaf,Wheat plants; [17],32.44 cm^2
same,Area of the leaf F-1,Wheat plants; [17],30.28 cm^2
same,Length of the flag leaf,Wheat plants; [17],26.57 cm
same,Length of the leaf F-1,Wheat plants; [17],29.38 cm
same,Width of the flag leaf,Wheat plants; [17],1.52 cm
same,Width of the leaf F-1,Wheat plants; [17],1.20 cm
same,Area [rel.] of the flag leaf,Wheat plants; [17],116 rel.
same,Area [rel.] of the leaf F-1,Wheat plants; [17],110 rel.
same,Area of the flag leaf,Wheat plants; [18],39.44 cm^2
same,Length of the flag leaf,Wheat plants; [18],26.83 cm
same,Width of the flag leaf,Wheat plants; [18],1.77 cm
same,Area [rel.] of the flag leaf,Wheat plants; [18],122 rel.
same,Area of the flag leaf,Wheat plants; [19],32.37 cm^2
same,Area of the leaf F-1,Wheat plants; [19],30.55 cm^2
same,Length of the flag leaf,Wheat plants; [19],26.58 cm
same,Length of the leaf F-1,Wheat plants; [19],31.10 cm
same,Width of the flag leaf,Wheat plants; [19],1.47 cm
same,Width of the leaf F-1,Wheat plants; [19],1.26 cm
same,Area [rel.] of the flag leaf,Wheat plants; [19],116 rel.
same,Area [rel.] of the leaf F-1,Wheat plants; [19],111 rel.
same,Area of the flag leaf,Wheat plants; [20],37.91 cm^2
same,Length of the flag leaf,Wheat plants; [20],23.78 cm
same,Width of the flag leaf,Wheat plants; [20],2.02 cm
same,Area [rel.] of the flag leaf,Wheat plants; [20],117 rel.
